We go through one compound from patent US20120122991A1, “METHOD FOR TREATING CANCER BY INCREASING AMP-ACTIVATED KINASE ACTIVITY” (Dana-Farber Cancer Institute, Inc., priority 2003, published 2012).

The subject of one test is tuberin. As to the kind of experiment: Tuberin mobility shift on SDS-PAGE in transfected HeLa cells. Format: cell-based, human. An excerpt: FIG. 7A: In vitro kinase assay using FLAG-tagged tuberin as a substrate for LKB1-activated AMPK. Purified E. coli produced recombinant AMPK was activated by an in vitro kinase assay with wild-type LKB1, kinase-dead LKB1, or untransfected control immunoprecipitates then isolated and assayed for its ability to phosphorylate tuberin in vitro. FIG. 7B: Comparison of recombinant Akt-mediated tuberin phosphorylation in vitro to recombinant AMPK phosphorylation in vitro. Note that only AMPK-mediated phosphorylation induces a significant mobility shift in tuberin on SDS-PAGE. C: HeLa cells were co-transfected with FLAG-tagged tuberin, and empty vector or wild-type LKB1 and treated with 2 mM AICAR where indicated. Total cell lysates were then immunoblotted with anti-FLAG antisera to detect the introduced tuberin. Note the significant mobility shift induced by AICAR treatment of LKB1-expressing cells. […] FIG. 7D: HeLa cells were transfected with HA-tagged S6K1 and FLAG-tagged wild-type LKB1 along with empty vector, or dominant negative AMPK alpha1 (GST-tagged) or dominant negative AMPK alpha2 (myc tagged). Cells were treated with 2 mM AICAR for 2 h where indicated. HA-immunoprecipitates were immunoblotted with phospho-Thr389 S6K1 antisera to detect activated S6K1 and reprobed for total HA-S6K1 levels. […]

The next test relates to HeLa cells. As to the kind of experiment: Cell survival (MTT assay, phase contrast) of HeLa cells stably expressing vector, WT or KD LKB1. In kind it is cell-based, human. Particulars: 2.5 mM AICAR, within 8 h. The protocol: Results are representative of four independent experiments. Cell viability was determined following AICAR or UV expressed as a percentage of untreated controls. Cell viability quantified by MTT assays run in triplicate on indicated HeLa stable cell lines treated with 2.5 mM AICAR or 50 j/cm^2 UV for 8 h. Results are representative of two independent experiments.
Kinase Assays and Cellular Analysis: AMPK kinase activity was measured using the SAMS peptide as previously described (7). LKB1 phosphorylation of AMPK was carried out in kinase buffer (50 mM Tris pH 7.5, 10 mM MgCl2, 1 mM DTT, 100 μM ATP) for 20 mins at 30° C. For immunopreciptations of active LKB1 kinase, Flag-tagged LKB1 was co-transfected with an equimolar amount of STRAD expression plasmid into HT1080 cells and immunoprecipitated using M2-agarose (Sigma) 24 h post-transfection in NP40 lysis buffer26. Before kinase assays, immunoprecipitated LKB1 was washed 3× in lysis buffer then 2× in kinase buffer. Soluble MBP-AMPK was added at 5 μg per kinase reaction. […]
To determine if LKB1 can mediate a biological response to a stimulus that activates the AMPKK/AMPK cascade we investigated whether LKB1 might modulate cell death under circumstances where AMPK would be activated. […] The extent of cell survival conferred by LKB1 reconstitution in the HeLa cells was quantified by MTT assay (FIG. 5b,c).

SMILES strings stand for the structures.

With `NC(=O)c1ncn([C@@H]2O[C@H](CO)[C@@H](O)[C@H]2O)c1N` [AICAR, 5-aminoimidazole-4-carboxamide 1-β-D-ribofuranoside], the “tuberin mobility on SDS-PAGE” value is given as “significant reduction in tuberin mobility” in the test with tuberin (HeLa cells expressing wild-type LKB1, 2 mM AICAR) and “no effect on tuberin mobility” with tuberin (HeLa cells in the absence of LKB1 expression, AICAR). Also, the cell death entry in the test on HeLa cells (vector control and kinase-dead LKB1 expressing HeLa cells) is given as “extensive cell death”. In addition, in the test with HeLa cells (wild-type LKB1 expressing HeLa cells), the cell viability entry is given as “nearly totally viable”.
